Reference: US20160102058A1, “FLUORO-PERHEXILINE COMPOUNDS AND THEIR THERAPEUTIC USE” (THE UNIVERSITY COURT OF THE UNIVERSITY OF ABERDEEN, priority 2013, published 2016)

Experiments:
[1] = cited from earlier work
[2] = Human liver microsomal (HLM) stability assay; assay type: in vitro ADME
Protocol: (§1) The metabolic stability of fluoroperhexiline derivatives was measured by determination of the rate of compound disappearance when incubated in the presence of both human and rat liver microsomes. Liver microsomes are prepared from the endoplasmic reticulum of hepatocytes and are the primary source of the most important enzymes (cytochrome P450) involved in drug metabolism. Study of drug stability in the presence of liver microsomes is accepted as a valuable model permitting rapid prediction of in vivo drug stability.
(§2) Human and rat liver microsomes were obtained from a commercial source. Test compounds (3 μM) were incubated with pooled liver microsomes (male and female). Samples were incubated for a 45 minute period and removed at 5 time points and test compounds were analysed by LC-MS/MS.
(§3) Microsomes (final protein concentration 0.5 mg/mL), 0.1 M phosphate buffer pH 7.4, and test compound (final concentration 3 μM; diluted from 10 mM stock solution to give a final DMSO concentration of 0.25%) were incubated at 37° C. prior to the addition of NADPH (final concentration 1 mM) to initiate the reaction. The final incubation volume was 25 μL. A control incubation was included for each compound tested, where 0.1 M phosphate buffer pH 7.4 was added instead of NADPH. The control compounds testosterone and 7-hydroxycoumarin were included in each experiment and all incubations were performed singularly for each compound.
(§4) Each compound was incubated for 0, 5, 15, 30, and 45 minutes. The control (minus NADPH) was incubated for 45 minutes only. The reactions were stopped by the addition of 50 μL methanol containing internal standard at the appropriate time points. The incubation plates were centrifuged at 2500 rpm for 20 minutes at 4° C. to precipitate the protein.
(§5) Following protein precipitation, the sample supernatants were combined in cassettes of up to 4 compounds and analysed using standard LC-MS/MS conditions.
(§6) From a plot of the natural logarithm of the peak area ratio (i.e., the ratio of compound peak area:internal standard peak area) against time, the gradient of the line was determined. Subsequently, half-life and intrinsic clearance were calculated using the equations below:
(§7) Eliminated Rate Constant (k)=(−Gradient).
(§8) Half-Life (t1/2) (min)=0.063/k.
(§9) Intrinsic Clearance (CLint) […]=(V×0.693)/t1/2. • wherein V=Incubation Volume (μL/mg microsomal protein).

[3] = Rat liver microsomal (RLM) stability assay; assay type: in vitro ADME; details: both sexes, pH 7.4, rat liver microsomes, 3 μM test compound
Protocol: as §1, §2, §3, §4, §5, §6, §7, §8, §9

CYP2D6 = molecular target: T1, CYP2D6 (Homo sapiens, UniProt P10635); assay: Cytochrome P450 2D6 reaction phenotyping (Bactosomes); assay type: in vitro ADME
T1 construct: purchased Cypex Ltd; host or cells: bacterial membranes (Bactosomes)
Protocol: The stability of fluoroperhexiline derivatives towards CYP2D6-mediated metabolism was measured by determination of the rate of compound disappearance when incubated in the presence CYP2D6 recombinant isoform expression systems (Bactosomes™). The percentage of parent compound remaining at each time point (following correction for any loss in the incubations with the control bactosomes) is calculated. cDNA expressed human CYP450 enzyme preparations co-expressed with human NADPH cytochrome P450 reductase (Bactosomes™) are supplied by Cypex Ltd. Bactosomes™ are stored at −80° C. prior to use. […] Incubations are also performed using control bactosomes (no P450 enzymes present) to reveal any non-enzymatic degradation. The final incubation volume is 25 μL. A compound known to be metabolised specifically by CYP2D6 isoform is used as a control compound. Each compound is incubated singly for 0, 5, 15, 30 and 45 min with each isoform. The reactions are stopped by the addition of 50 μL methanol containing internal standard at the appropriate time points. The incubation plates are centrifuged at 2500 rpm for 20 min at 4° C. to precipitate the protein. Following protein precipitation, the sample supernatants are combined in cassettes of up to four compounds and analysed using Cyprotex generic LC-MS/MS conditions. The natural logarithm of the peak area ratio (which has been corrected for any loss in the incubations with the control bactosomes) is plotted against time and the gradient of the line determined. Elimination Rate Constant (k)=(−Gradient).

T1 sequence (P10635 whole entry): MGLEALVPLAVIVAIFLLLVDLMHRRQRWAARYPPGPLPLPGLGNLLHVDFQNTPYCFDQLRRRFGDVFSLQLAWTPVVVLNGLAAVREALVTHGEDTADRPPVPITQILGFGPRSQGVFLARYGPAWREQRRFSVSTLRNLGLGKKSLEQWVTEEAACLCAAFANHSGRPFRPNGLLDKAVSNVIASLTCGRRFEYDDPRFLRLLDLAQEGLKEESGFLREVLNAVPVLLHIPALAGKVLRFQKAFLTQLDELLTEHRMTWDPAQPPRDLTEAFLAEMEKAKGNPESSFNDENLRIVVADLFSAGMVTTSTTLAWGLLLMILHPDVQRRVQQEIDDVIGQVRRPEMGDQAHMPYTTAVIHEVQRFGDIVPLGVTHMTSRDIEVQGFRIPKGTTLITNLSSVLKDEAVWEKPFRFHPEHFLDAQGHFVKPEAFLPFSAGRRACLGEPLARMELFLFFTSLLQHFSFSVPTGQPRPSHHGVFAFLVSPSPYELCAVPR

Question: Which “plasma AUC of cis-OH-perhexiline after (−)-perhexiline compared with (+)-perhexiline” value ([1]; plasma) does the source give for `O[C@H]1CC[C@@H](C(CC2CCCCN2)C2CCCCC2)CC1` (relative stereo) [cis-OH-perhexiline, cis-4-[1-(cyclohexyl)-2-(2-piperidinyl)ethyl]cyclohexanol] here?
Answer: 28 fold

Question: Which “ratio of systemic exposure of (+)- to (−)-perhexiline, extensive metabolisers” value ([1]; EM) does the source give for `C1CCC(C(CC2CCCCN2)C2CCCCC2)CC1` (single isomer, unassigned; (+)) [(+)-perhexiline] here?
Answer: 1.5

Question: And the “ratio of systemic exposure of (+)- to (−)-perhexiline, poor metabolisers” value ([1]; PM)?
Answer: 2.3

Question: And the “plasma AUC, (+)-perhexiline relative to (−)-perhexiline” value ([1]; plasma)?
Answer: 2.5 fold

Question: Which microsomal CLint at 3 μM ([2]; both sexes, pH 7.4, human liver microsomes, 3 μM test compound, read-out: CLint (μL/min/mg protein) HLM) does the source give for `FC1(F)CCC(C(CC2CCCCN2)C2CCC(F)(F)CC2)CC1` (centres unmarked) [FPER-002, 2-(2,2-Bis(4,4-Difluorocyclohexyl)ethyl)piperidine] here?
Answer: 0.3 µL/min/mg

Question: What about the half-life at 3 μM ([2]; both sexes, pH 7.4, human liver microsomes, 3 μM test compound, read-out: T½ (min) HLM) of the same compound?
Answer: 4210 min

Question: And the “metabolic stability compared with perhexiline (in words)” value ([2]; human and rat liver microsomes, versus perhexiline)?
Answer: substantial increase in metabolic stability

Question: What about the microsomal CLint at 3 μM ([3]; read-out: CLint (μL/min/mg protein) RLM) of the same compound?
Answer: 0.8 µL/min/mg

Question: What about the half-life at 3 μM ([3]; read-out: T½ (min) RLM) of the same compound?
Answer: 1650 min

Question: What about the half-life at 5 μM (CYP2D6; human, pH 7.4, recombinant CYP2D6 Bactosomes, 5 μM test compound, read-out: T½) of the same compound?
Answer: 2.52 h

Question: And the “stability towards CYP2D6 compared with perhexiline (in words)” value (CYP2D6; versus perhexiline)?
Answer: substantial increase in stability towards CYP2D6
